# Experiments:
# human G361 cells = assay: Cell viability of human G361 cells, FIG. 2; assay type: cell-based; settings: metformin 0 to 20 mM
# Text: AICAR [aminoimidazole carboxamide ribonucleotide] an AMPK agonist, is used as reference.
# melanoma cells [1] = assay: Cell death by FACS analysis of propidium iodide uptake, FIG. 1''; assay type: cell-based
# Protocol: Cell death was measured by FACS analysis of propidium iodide uptake.
# melanoma cells [2] = assay: TUNEL assay of mouse tumor sections, FIG. 4'; assay type: in vivo; settings: tumor sections of metformin-treated mice
# B16 melanoma cells = assay: Syngenic model, allograft of B16 melanoma cells, FIG. 4''; settings: B16 allograft in C57B16 mice
# [3] = system: human melanomas cells (A375); assay: Cell viability of human melanoma cells (A375), FIG. 1; assay type: cell-based; settings: 0 to 20 mM, 72 h and 96 h
# Protocol: (§1) FIG. 1 discloses a study on viability cells of human melanomas cells (A375) in comparison to normal human melanocytes.
# (§2) Doses of metformin used for this experiment are in a range between 0 to 20 mM at 72 h and 96 h.
# [4] = system: freshly human melanoma cells isolated from patients; assay: Cell viability of freshly isolated human melanoma cells from patients, FIG. 1'; assay type: cell-based; settings: 0 to 10 mM, 72 h
# Protocol: FIG. 1′ discloses a study on viability cells of freshly human melanoma cells isolated from patients.
# Doses of metformin used for this experiment are in a range between 0 to 10 mM at 72 h.
# normal human melanocytes = assay: Cell viability of normal human melanocytes, FIG. 1; assay type: cell-based; settings: 0 to 20 mM, 72 h and 96 h
# Protocol: as §1, §2
# A375 melanoma cells = assay: Mouse model of melanoma xenograft (A375), FIG. 4; assay type: in vivo, athymic nude mice; settings: 2 mg/mouse/day by injection, after 23 days of treatment
# AMPK = assay: Cell viability after AMPK disruption using si-RNA (Western Blot), FIG. 3; assay type: cell-based
Compound,percentage of cell viability (human G361 cells),cell death (propidium iodide uptake) (melanoma cells [1]),TUNEL-positive cells in the tumors (melanoma cells [2]),volume of tumor (B16 melanoma cells),weight of tumor (B16 melanoma cells),effect on cell viability of melanoma cells [3],effect on cell viability of melanoma cells [4],effect on cell viability of melanocytes (normal cells) (normal human melanocytes),volume of melanoma (A375 melanoma cells),weight of melanoma (A375 melanoma cells),dependence of the effect on cell viability on AMPK (AMPK)
"NC(=O)c1ncn([C@@H]2O[C@H](CO)[C@@H](O)[C@H]2O)c1N [AICAR, aminoimidazole carboxamide ribonucleotide]",no significative effect,–,–,–,–,–,–,–,–,–,–
"CN(C)C(=N)NC(=N)N [Metformin, N,N-dimethylimidodicarbonimidic diamide]",significant dose dependent decrease,induces a dose dependent cell death,increase in TUNEL-positive cells,diminished,diminished,dose dependent effect,dose dependent effect,no effect,decreases significantly,decreases significantly,independent on AMPK

# Source: patent US20130059916A1, “BIGUANIDE COMPOUNDS AND ITS USE FOR TREATING CANCER” (priority 2010, published 2013)
